Experimental data taken from BindingDB's records for doi:10.7270/Q22V2DK6 (The Scripps Research Institute Molecular Screening Center, 2010).
pEC50: −log10 of the molar value.

Target: T1, Caspase-7 (Homo sapiens, UniProt P55210)
T1 sequence (P55210 whole entry): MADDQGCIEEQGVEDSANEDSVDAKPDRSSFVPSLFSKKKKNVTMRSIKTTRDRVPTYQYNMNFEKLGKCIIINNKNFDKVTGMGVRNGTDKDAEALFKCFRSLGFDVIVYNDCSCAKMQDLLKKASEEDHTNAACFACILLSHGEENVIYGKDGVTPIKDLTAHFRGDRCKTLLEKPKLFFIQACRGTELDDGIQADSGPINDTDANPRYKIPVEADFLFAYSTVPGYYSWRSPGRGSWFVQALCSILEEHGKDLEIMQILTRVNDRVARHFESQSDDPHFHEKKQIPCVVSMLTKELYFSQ
Experiment: activation of caspase-7 zymogen – biochemical, absorbance, counter-screen for procaspase-3 activator project, dose response (AID 489013)

With `O=c1c2c(-c3ccccc3)[nH]n(-c3ccccc3)c-2c(O)n1-c1ccccc1` [SMR000269383] as the molecule, how does the pEC50 read?
The pEC50 was less than 4.07.

How did the pEC50 turn out when `O=C(CC1=NC2(CCCC2)Cc2ccccc21)C(=O)NN=Cc1ccccc1O` [SMR000219463] was run?
The pEC50 was less than 4.07.
